Activity calls are given as the source filed them. Rule as the data show it: actives have a measured IC50 and inactives only a lower limit.
target: Envelope glycoprotein gp160 (Human immunodeficiency virus 1, UniProt Q6QLK5); assay: inhibitors of HIV fusion peptide binding, primary screen, biochemical, uHTS, fluorescence dequenching (AID 1986)
Sequence (Q6QLK5 whole entry, the tested form may be a part): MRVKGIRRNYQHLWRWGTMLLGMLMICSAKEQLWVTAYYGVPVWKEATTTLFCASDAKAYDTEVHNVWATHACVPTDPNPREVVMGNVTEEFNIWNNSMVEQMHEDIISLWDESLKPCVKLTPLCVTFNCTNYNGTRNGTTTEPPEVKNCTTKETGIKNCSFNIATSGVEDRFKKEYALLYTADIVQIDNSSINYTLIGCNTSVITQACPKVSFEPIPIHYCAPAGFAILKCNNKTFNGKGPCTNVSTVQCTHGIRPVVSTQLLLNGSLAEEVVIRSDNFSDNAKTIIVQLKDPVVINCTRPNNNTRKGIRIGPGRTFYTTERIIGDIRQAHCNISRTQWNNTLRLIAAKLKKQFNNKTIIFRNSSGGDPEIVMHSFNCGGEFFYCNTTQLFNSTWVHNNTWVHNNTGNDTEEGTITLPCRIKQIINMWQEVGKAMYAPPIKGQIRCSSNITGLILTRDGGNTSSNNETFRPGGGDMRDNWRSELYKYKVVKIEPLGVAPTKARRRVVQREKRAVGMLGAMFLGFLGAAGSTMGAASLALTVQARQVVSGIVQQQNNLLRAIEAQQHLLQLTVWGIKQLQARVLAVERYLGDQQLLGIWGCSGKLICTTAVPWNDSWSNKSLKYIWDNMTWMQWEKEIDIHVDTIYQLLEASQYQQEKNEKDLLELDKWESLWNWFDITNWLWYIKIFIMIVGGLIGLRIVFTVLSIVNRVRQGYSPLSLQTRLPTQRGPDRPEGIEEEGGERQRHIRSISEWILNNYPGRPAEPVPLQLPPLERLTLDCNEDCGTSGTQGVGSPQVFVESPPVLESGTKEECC

SMILES	IC50
CSc1nc(SCC(=O)O)c2sc3nc(-c4ccccc4)c4c(c3c2n1)CCC4	16.2 µM (active)
O=C1NN(c2ccc(F)c(Cl)c2)C(=O)/C1=C\c1cccc(OC(=O)c2cccs2)c1	7.72 µM (active)
O=C(O)Cn1cc(/C=c2/sc3nc4ccccc4n3c2=O)c2ccccc21	68.9 µM (active)
